pIC50: −log10 of the molar value. Counter-ions that a name gives are not always drawn. Like-named read-outs stand apart in the source and are kept apart here.
Tests used:
[1] = system: phospho-ERK in HCT-116 cells; test: HCT-116 cell pERK assay (AlphaScreen SureFire); format: cell-based; conditions: for pIC50: Homo sapiens, HCT-116 cells, B-Raf wild type, K-Ras mutation, 4 hours, read-out: IC50 reduction of phospho-ERK signal
Description: Examples of Formula I are tested against HCT-116 cells harboring wild type B-Raf and K-Ras mutation. The phospho-ERK activities are evaluated as described below.
HCT-116 cells (catalog #CCL-247) are obtained from the American Type Culture Collection (ATCC, Manassas, Va.). Briefly, cells are grown in McCoy's 5A supplemented with 10% characterized fetal bovine serum (Invitrogen, Carlsbad, Calif.), and 1% Penicillin/Streptomycin/L-Glutamine at 37 degrees Celsius, 5% CO2, and 95% humidity. Cells are allowed to expand until reaching 75-90% confluency at which point they are subcultured or harvested for assay use. HCT-116 cells suspended in complete media are added to 384-well tissue culture treated plates (3×10^5 cells/mL; 7,500 cells per well). The cells are incubated overnight at 37 degrees Celsius, 5% CO2, and 95% humidity. Next, test compound or DMSO diluted in complete media is added to the wells (0.25% final DMSO concentration). The plates are then incubated for 4 hours at 37 degrees Celsius, 5% CO2, and 95% humidity. Following compound incubation, the cells are lysed at 4° C. for 20 minutes with shaking Cell lysates are centrifuged and the supernatant is transferred to a new plate. An aliquot of each lysate is transferred to a white 384-well assay plate. Using the AlphaScreen SureFire pERK kit (Perkin-Elmer, Waltham, Mass.), an acceptor bead mixture is added to each well and incubated for 2 h at room temperature in the dark. A donor bead mixture is then added to each well and incubated for 2 h at room temperature in the dark. Plates are read using a Synergy2 plate reader (Biotek, Winooski, Vt.) in Plate Mode with Timing Control. Read: (F)1: excitation: 680/30 nm, emission: Plug. 2: Excitation: Plug, emission: 570/100 nm. Top mirror 635 nm. Data is analyzed using Prism software (Graphpad, San Diego, Calif.) to calculate IC50 values and Excel software (Microsoft, Redmond, Wash.) to calculate stimulation compared to control.

[2] = system: A375 xenograft tumor; test: A375 mouse xenograft efficacy model; format: in vivo, mice; conditions: oral, 21 days
Description: (§1) To further evaluate in vivo activity of compounds of Formula I, an A375 xenograft tumor model is utilized. Briefly, 10×10^6 cells in a 1:1 matrigel mix (0.2 mL total volume) are implanted by subcutaneous injection in the hind leg of nude female mice. A total of 8-10 mice in each group are used. Treatment is initiated with oral administration (gavage) of a test compound or vehicle (20% captisol, 25 mM phosphate, pH2.0) in 0.2 mL volume when tumor size reaches approximately 300-500 mg. Test compound is orally dosed twice or thrice a day for 21 days. Tumor growth and body weight are monitored over time to evaluate efficacy and signs of toxicity. Bidimensional measurements of tumors are performed twice a week and tumor volumes are calculated based on the following formula: (Tumor Volume)=[(L)×(W^2)×(π/6)] where L is mid-axis length and W is mid-axis width. Tumor volume data are transformed to a log scale to equalize variance across time and treatment groups. The log volume data are analyzed with a two-way repeated measures analysis of variance by time and treatment using the MIXED procedures in SAS software (version 8.2). The correlation model for the repeated measures is spatial power. Treated groups are compared to the control group at each time point. The MIXED procedure is also used separately for each treatment group to calculate adjusted means and standard errors at each time point. Both analyses account for the autocorrelation within each animal and the loss of data that occurs when animals with large tumors are removed from the study early. The adjusted means and standard errors are plotted for each treatment group versus time.

[3] = Body weight in A375 mouse xenograft efficacy model; format: in vivo, mice; conditions: oral, 21 days
Description: as §1

[4] = system: A375res cells; test: Proliferation assay in vemurafenib-resistant A375res melanoma cells; conditions: for pIC50: Homo sapiens, 72 h
Description: (§6) A vemurafenib-resistant cell line is generated by chronic treatment of the human melanoma cell line A375 (ATCC) harboring the B-Raf V600E mutation with increasing concentrations PLX4720.

[5] = system: A375res cells
Description: as §6

[6] = system: phospho-ERK in A375 (B-Raf V600E) xenograft; test: A375 mouse xenograft pharmacodynamic assay (tumor pERK by ELISA); format: in vivo, mice; conditions: A-375, 20 mg/kg oral, 2 h post dose, vs vehicle, read-out: Measured pERK inhibition 2 h post dose
Description: To evaluate the in vivo pharmacodynamic (PD) effects of compounds of Formula I, an A375 (B-Raf V600E) xenograft model is employed. Briefly, 10×10^6 A375 tumor cells (ATCC) are prepared in a 1:1 matrigel mix (0.2 mL total volume) and implanted by subcutaneous injection in hind leg of nude female mice. A total of 4 mice each for each dosing group are employed. Treatment is initiated with oral administration (gavage) of test compound or vehicle (20% captisol, 25 mM phosphate, pH2.0) in 0.2 mL volume when average tumor size reaches approximately 300 mg. After a fixed time interval, the tumors are harvested and the phospho-ERK levels are measured by ELISA (Enzyme-linked immunosorbent assay). Treated groups are compared to the vehicle control group to calculate % inhibition.

[7] = system: A375 cells; test: A375 cell proliferation assay (72 hour); format: cell-based; conditions: Homo sapiens, A-375, parental A375 cells
Description: A375 cells (catalog #CRL-1619) are obtained from the American Type Culture Collection (ATCC, Manassas, Va.). Briefly, cells are grown in DMEM High Glucose supplemented with 10% characterized fetal bovine serum (Invitrogen, Carlsbad, Calif.) and 1% Penicillin/Streptomycin/L-Glutamine at 37 degrees Celsius, 5% CO2, and 95% humidity. Cells are allowed to expand until reaching 70-95% confluency at which point they are subcultured or harvested for assay use. A serial dilution of test compound is dispensed into a 384-well black clear bottom plate in triplicate. Six hundred twenty-five cells are added per well in 50 μL complete growth medium in the 384-well plate. Plates are incubated for 67 hours at 37 degrees Celsius, 5% CO2, and 95% humidity. […] Plates are read on a Synergy2 reader (Biotek, Winooski, Vt.) using an excitation of 540 nm and an emission of 600 nm. Data is analyzed using Prism software (Graphpad, San Diego, Calif.) to calculate IC50 values.

[8] = target: A-Raf (Homo sapiens (Human), UniProt P10398); test: ActivX KiNativ A375 whole cell lysate assay; format: binding
Sequence of A-Raf (P10398 whole entry): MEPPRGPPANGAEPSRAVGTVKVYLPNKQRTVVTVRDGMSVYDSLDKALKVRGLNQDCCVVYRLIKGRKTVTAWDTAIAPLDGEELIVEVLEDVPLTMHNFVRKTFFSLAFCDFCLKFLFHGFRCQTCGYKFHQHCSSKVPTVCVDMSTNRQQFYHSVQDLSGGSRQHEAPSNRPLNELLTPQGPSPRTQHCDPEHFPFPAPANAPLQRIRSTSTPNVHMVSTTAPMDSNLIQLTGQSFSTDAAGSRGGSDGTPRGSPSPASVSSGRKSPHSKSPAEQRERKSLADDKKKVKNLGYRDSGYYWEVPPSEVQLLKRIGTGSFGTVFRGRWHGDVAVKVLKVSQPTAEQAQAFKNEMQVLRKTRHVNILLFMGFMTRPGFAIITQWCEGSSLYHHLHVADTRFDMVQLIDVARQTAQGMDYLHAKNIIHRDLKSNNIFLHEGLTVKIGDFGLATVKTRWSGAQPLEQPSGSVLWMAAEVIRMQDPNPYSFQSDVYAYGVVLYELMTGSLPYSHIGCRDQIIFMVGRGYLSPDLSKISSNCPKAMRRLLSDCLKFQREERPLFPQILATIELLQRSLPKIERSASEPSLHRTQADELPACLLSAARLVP
Description: (§2) To further evaluate the enzymatic pan Raf activities of test compounds, they are evaluated in a KiNativ assay developed and carried out by ActivX Biosciences Inc. using whole cell lysates of A375 cells. A375 cells are human melanoma cells with a B-Raf V600E mutation.
(§3) Sample preparation: A375 cells from ATCC are lysed by sonication in commercially available lysis buffer, cleared by centrifugation, and the resulting supernatant gel filtered into a commercially available kinase reaction buffer containing 20 mM MnCl2. Final protein concentration of lysates are 10 mg/mL. 5 μL of each test compound is added from 100 μM, 10 μM, 1 μM, or 0.1 μM stock solutions in DMSO to 500 uL of lysate in duplicate for final concentrations of 1 μM, 0.1 μM, 0.01 μM, and 0.001 μM. 5 μL of DMSO is added to 500 μL of lysate in quadruplicate for controls. After 15 minute incubation, desthiobiotin-ATP acylphosphate probe is added to each sample to a final concentration of 5 μM and incubated with the samples for 10 minutes. Following the probe reaction, samples are prepared for targeted mass spectrum analysis using ActivX standard protocol. Briefly, samples are prepared for trypsin digestion (denature, reduce alkylate), digested with trypsin, and desthio-biotinylated peptides are enriched on streptavidin resin.
(§4) Data collection: Enriched peptide samples are analyzed by LC-MS/MS on a Thermo-LTQ Velos ion trap mass spectrometer using ActivX data collection methodology for A375 cells.
(§5) Data analysis: All quantitation is performed by extracting characteristic fragment ion signals from targeted MS/MS spectra and comparing signals in control and treated samples. ActivX software is used with manual validation/visual inspection performed as needed based on data flagging/filtering measures. All inhibition data points are visually verified, as are all data points showing variability outside of normal limits.

[9] = target: B-Raf (V600E) (Homo sapiens (Human), UniProt P15056, V600E); test: ActivX KiNativ A375 whole cell lysate assay; format: binding
Sequence of B-Raf (V600E) (P15056 whole entry V600E): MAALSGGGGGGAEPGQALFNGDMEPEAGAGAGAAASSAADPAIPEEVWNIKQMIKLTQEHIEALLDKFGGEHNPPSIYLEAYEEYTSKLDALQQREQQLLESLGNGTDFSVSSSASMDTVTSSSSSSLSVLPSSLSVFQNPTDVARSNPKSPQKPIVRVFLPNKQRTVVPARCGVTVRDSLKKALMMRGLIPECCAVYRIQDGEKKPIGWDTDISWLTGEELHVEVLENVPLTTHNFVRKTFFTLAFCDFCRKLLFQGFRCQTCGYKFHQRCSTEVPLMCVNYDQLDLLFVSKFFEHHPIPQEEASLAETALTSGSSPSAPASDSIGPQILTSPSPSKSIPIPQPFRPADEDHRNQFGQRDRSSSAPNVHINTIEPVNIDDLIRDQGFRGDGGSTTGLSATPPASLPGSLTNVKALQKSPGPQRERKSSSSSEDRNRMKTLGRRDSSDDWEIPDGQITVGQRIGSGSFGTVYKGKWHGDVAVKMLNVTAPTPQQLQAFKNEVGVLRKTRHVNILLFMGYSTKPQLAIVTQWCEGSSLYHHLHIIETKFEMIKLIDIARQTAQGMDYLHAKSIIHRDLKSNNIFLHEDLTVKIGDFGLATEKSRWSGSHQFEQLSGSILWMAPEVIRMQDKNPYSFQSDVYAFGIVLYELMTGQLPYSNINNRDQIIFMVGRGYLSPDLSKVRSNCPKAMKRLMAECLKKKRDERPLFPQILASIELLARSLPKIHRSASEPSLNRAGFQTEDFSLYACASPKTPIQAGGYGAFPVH
Description: as §2, §3, §4, §5

[10] = target: C-Raf (Homo sapiens (Human), UniProt P04049); test: ActivX KiNativ A375 whole cell lysate assay; format: binding
Sequence of C-Raf (P04049 whole entry): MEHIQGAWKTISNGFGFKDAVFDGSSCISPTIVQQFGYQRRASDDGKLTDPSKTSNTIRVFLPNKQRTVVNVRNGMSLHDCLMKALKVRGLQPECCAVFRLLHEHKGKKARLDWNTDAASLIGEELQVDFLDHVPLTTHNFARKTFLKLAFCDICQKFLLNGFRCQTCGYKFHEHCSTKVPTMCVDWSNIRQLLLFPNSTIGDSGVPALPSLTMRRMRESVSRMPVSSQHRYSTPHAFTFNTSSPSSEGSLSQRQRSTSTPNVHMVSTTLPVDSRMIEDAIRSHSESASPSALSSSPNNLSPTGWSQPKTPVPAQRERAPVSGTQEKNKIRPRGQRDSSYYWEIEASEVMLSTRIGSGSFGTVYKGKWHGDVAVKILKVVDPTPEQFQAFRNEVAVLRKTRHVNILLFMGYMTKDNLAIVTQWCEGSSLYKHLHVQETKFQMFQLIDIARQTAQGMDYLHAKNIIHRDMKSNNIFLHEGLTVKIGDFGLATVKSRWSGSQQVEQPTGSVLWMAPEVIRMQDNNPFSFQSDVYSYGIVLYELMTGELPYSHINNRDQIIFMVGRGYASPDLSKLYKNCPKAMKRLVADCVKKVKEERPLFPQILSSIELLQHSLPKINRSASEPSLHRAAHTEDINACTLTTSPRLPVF
Description: as §2, §3, §4, §5

[11] = system: A-Raf, B-RafV600E and C-Raf; test: ActivX KiNativ A375 whole cell lysate assay, summary over Raf isoforms; format: binding, human; conditions: A375 cells; summary of Table 1
Description: as §2
as §3, with “Following the probe reaction, samples are prepared for targeted mass spectrum analysis using ActivX standard protocol. Briefly, samples are prepared for trypsin digestion (denature, reduce alkylate), digested with trypsin, and desthio-biotinylated peptides are enriched on streptavidin resin.” left out
as §4
Data analysis: All quantitation is performed by extracting characteristic fragment ion signals from targeted MS/MS spectra and comparing signals in control and treated samples. […]

pIC50 [1]	pIC50 ([4]; read-out: absolute IC50 values)	IC50 shift A375 to A375res [5]	Compound	inhibition in vivo at 20 mg/kg [6] [%]	other results
7.02 to 8.70	6.30 to 8.05	0.5-4.9 fold	CNc1cc2nc(C)c(-c3cc(NC(=O)NC4CCC(F)(F)CC4)c(F)cc3C)cc2cn1 [Example 12, 1-(4,4-difluorocyclohexyl)-3-(2-fluoro-4-methyl-5-(2-methyl-7-(methylamino)-1,6-naphthyridin-3-yl)phenyl)urea hydrochloride]	58	
7.02 to 8.70	6.30 to 8.05	0.5-4.9 fold	CNc1cc2nc(C)c(-c3cc(NC(=O)NC[C@H](O)C(C)(C)C)c(F)cc3C)cc2cn1 [Example 57, (R)-1-(2-fluoro-4-methyl-5-(2-methyl-7-(methylamino)-1,6-naphthyridin-3-yl)phenyl)-3-(2-hydroxy-3,3-dimethylbutyl)urea]	96	
7.02 to 8.70	6.30 to 8.05	0.5-4.9 fold	Cc1nc2cc(NCCO)ncc2cc1-c1cc(NC(=O)NCCC(C)(C)C)c(F)cc1F [Example 47, 1-(2,4-difluoro-5-(7-(2-hydroxyethylamino)-2-methyl-1,6-naphthyridin-3-yl)phenyl)-3-(3,3-dimethylbutyl)urea]	50	
7.02 to 8.70	6.30 to 8.05	0.5-4.9 fold	CNc1cc2nc(C)c(-c3cc(NC(=O)NCCC(C)(C)OC)c(F)cc3C)cc2cn1 [Example 92, 1-(2-fluoro-4-methyl-5-(2-methyl-7-(methylamino)-1,6-naphthyridin-3-yl)phenyl)-3-(3-methoxy-3-methylbutyl)urea hydrochloride]	77	

Further lines, the molecule ahead of its results:

Compound	pIC50 [1]	pIC50 ([4]; read-out: absolute IC50 values)	IC50 shift A375 to A375res [5]	inhibition in vivo at 20 mg/kg [6] [%]	other results
Cc1cc(F)c(NC(=O)NCCC(C)(C)F)cc1-c1cc2cnc(N)cc2nc1C [Example 79, 1-(5-(7-amino-2-methyl-1,6-naphthyridin-3-yl)-2-fluoro-4-methylphenyl)-3-(3-fluoro-3-methylbutyl)urea]	7.02 to 8.70	6.30 to 8.05	0.5-4.9 fold	87	tumor growth ([2]; twice a day at 15 or 30 mg/kg): tumor growth inhibition; animal body weight loss ([3]; twice a day at 15 or 30 mg/kg): minimal animal body weight loss
CCCS(=O)(=O)Nc1ccc(F)c(C(=O)c2c[nH]c3ncc(-c4ccc(Cl)cc4)cc23)c1F [vemurafenib, reference compound]			more than 57 fold		effect on pERK signal ([1]; at concentrations up to about 3 uM): stimulates the pERK signal; pIC50 ([4]; read-out: IC50 proliferation): < 5.00; pIC50 [7]: 6.76
CCCS(=O)(=O)Nc1ccc(F)c(C(=O)c2c[nH]c3ncc(Cl)cc23)c1F [PLX4720, N-[3-(5-chloro-1H-pyrrolo[2,3-b]pyridine-3-carbonyl)-2,4-difluorophenyl]propane-1-sulfonamide, reference compound]					IC50 shift A375 to A375res ([4]; 72 hour proliferation assay): more than 27 fold; pIC50 ([4]; read-out: IC50 proliferation): < 5.00; pIC50 [7]: 6.43
CNc1cc2nc(C)c(-c3cc(NC(=O)NCCC(C)(C)C#N)c(F)cc3C)cc2cn1 [Example 9, 1-(3-cyano-3-methylbutyl)-3-(2-fluoro-4-methyl-5-(2-methyl-7-(methylamino)-1,6-naphthyridin-3-yl)phenyl)urea]	7.02 to 8.70	6.30 to 8.05	0.5-4.9 fold	78	
CNc1cc2nc(C)c(-c3cc(NC(=O)NCCC(C)(C)F)c(F)cc3C)cc2cn1 [Example 76, 1-(3-fluoro-3-methylbutyl)-3-(2-fluoro-4-methyl-5-(2-methyl-7-(methylamino)-1,6-naphthyridin-3-yl)phenyl)urea]	7.02 to 8.70	6.30 to 8.05	0.5-4.9 fold		tumor growth ([2]; twice a day at 10 or 30 mg/kg): tumor growth inhibition and tumor growth regression; pIC50 [8]: 6.92; pIC50 ([9]; first B-Raf (V600E) column): 7.80; pIC50 ([9]; second B-Raf (V600E) column): 7.66; pIC50 [10]: 6.77; animal body weight loss ([3]; twice a day at 10 or 30 mg/kg): minimal animal body weight loss; pIC50 [11]: > 6.77
CNc1cc2nc(C)c(-c3cc(NC(=O)N[C@H]4C[C@](C)(F)C4)c(F)cc3C)cc2cn1 [Example 77, 1-(3-fluoro-cis(3-methylcyclobutyl))-3-(2-fluoro-4-methyl-5-(2-methyl-7-(methylamino)-1,6-naphthyridin-3-yl)phenyl)urea]	7.02 to 8.70	6.30 to 8.05	0.5-4.9 fold	96	
CNc1cc2nc(C)c(-c3cc(NC(=O)NCCC(C)(C)C(F)(F)F)c(F)cc3C)cc2cn1 [Example 89, 1-(2-fluoro-4-methyl-5-(2-methyl-7-(methylamino)-1,6-naphthyridin-3-yl)phenyl)-3-(4,4,4-trifluoro-3,3-dimethylbutyl)urea hydrochloride]	7.02 to 8.70	6.30 to 8.05	0.5-4.9 fold	84	

Reference: patent US9187474B2, “Raf inhibitor compounds” (Deciphera Pharmaceuticals, LLC, priority 2012, dated 2015)
